Data set [1] deals with CT26 cells. Kind of data set: Immunological memory function in CT26 transplantation tumor model, syngeneic or nude mouse (re-inoculation). In kind it is in vivo, BALB/c immune-competent or nude mice. To be noted: for Average tumor volume after re-inoculation of CT26 cells: immunocompetent BALB/c mice. The protocol:
BALB/c immune-competent or nude mice of 6-8 weeks (purchased from Shanghai Ling Chang Biotech Co., Ltd.) were inoculated with 5×10^5 CT26 cells (supplied by Taicang Zexin Biotechnology Co., Ltd., ATCC #CRL-2638) subcutaneously on the right back dorsal, respectively, and the inoculation volume was 0.1 mL. When tumors grew to an average volume of 100 mm^3, they were randomized according to tumor size and mouse body weight and dosed. The day of the first dose was Day 0. Two doses were administered on Day 0 and Day 4, with 50 μg of compound/mouse (i.e., 2.5 mg/kg) injected intratumorally, with the same volume of PBS (Hyclone, Cat #SH30258.01) as a control. Mice in the nude or BALB/c mice groups were sacrificed on Day 9 or Day 13 post-dosing, respectively. On Day 21 post-dosing, mice were inoculated again subcutaneously on the left back dorsal with 5×10^5 CT26 cells in a volume of 0.1 mL. Blank BALB/c or nude mice without any treatment were also inoculated as controls. During the experiment, tumor volumes and the body weights were measured 3 times per week, and the tumor volume was calculated as V=D×d×d/2 (Ibid).

The nature of data set [2]: Discovery and identification of metabolites in hepatocytes. In kind it is in vitro ADME, mouse, rat, dog, monkey, human. To be noted: 5 species of hepatocytes, 240 min; FIG. 4-B. The source says: The main metabolites of the compounds of the invention in 5 species (mouse, rat, dog, monkey, human) of hepatocytes were similarly identified according to standard methods of in vitro metabolic stability studies conventional in the art, for example (Kems, Edward H. and Di Li (2008). Drug-like Properties: Concepts, Structure Design and Methods: From ADME to Toxicity Optimization, San Diego: Academic Press; Di, Li et al, Optimization of a High Throughput Microsomal Stability Screening Assay for Profiling Drug Discovery Candidates, J Biomol Screen. 2003, 8(4), 453).
The hepatocytes used in the experiment: human hepatocytes (SHQY, Cat. #BQHPCH10, Lot. #HEP190006-TA05), dog hepatocytes (BioIVT, Cat. #M00205, Lot. #ZMB); monkey hepatocytes (XENOTECH, Cat. #PPCH2000, Lot. #2010022), rat hepatocytes (SHQY, Cat. #BQR1000⋅H15, Lot. #HEP134049), and mouse hepatocytes (BioIVT, Cat. #M005052, Lot. #MEO).
A HI hepatocyte maintenance medium (BIOIVT, Cat. #Z99009; Lot. #C02060C) was pre-warmed to 37° C. Cryopreserved hepatocyte tubes were removed from a liquid nitrogen tank and immediately placed in a shaking water bath at 37±1° C. for 2 minutes±15 seconds. […] The hepatocytes were counted and then the cell suspension was diluted in HI medium to the appropriate density (viable cell density=2×10^6 cells/mL). […]

Counter-ions that a name gives are not always drawn.

On to `Nc1nc2c(ncn2[C@@H]2O[C@@H]3CO[P@@](=O)(S)OC4C(F)[C@H](n5cnc6c(N)nc(Cl)nc65)O[C@@H]4CO[P@@](=O)(S)OC2C3O)c(=O)[nH]1` (stereo partly drawn) [Example 10, (2′,3′)-cyclo-(Rp,Rp)-[2′-O-phosphorothioate-diester-guanosine]-[3′-O-phosphorothioate-diester-2-chloro-2′-deoxy-2′-fluoro-beta-adenosine] diammonium salt], for which the “CT26 tumor growth inhibition in immunocompetent and immunodeficient mice (in words)” value in data set [1] (50 μg/mouse intratumorally, Day 0 and Day 4) is “significantly inhibited CT26 tumor growth in both immunocompetent and immunodeficient mice”. For the same compound, the “Tumor status in treated immunocompetent mice” value in data set [1] (Day 5 post-dosing) is reported as “the tumors completely disappeared”. In addition, the “Average tumor volume after re-inoculation of CT26 cells” value in data set [1] (re-inoculated Day 21, end of experiment Day 33) amounted to 101 mm^3; in data set [1] (re-inoculated Day 21, measured Day 30), 29 mm^3. In addition, the “Immunological memory in immunocompetent mice” value in data set [1] (re-inoculated CT26 cells) is recorded as “developed an immunological memory”. The “Immunological memory in immunodeficient nude mice” value in data set [1] (re-inoculated CT26 cells Day 21) is recorded as “no immunological memory has been generated”. Further, in data set [2], the “Main metabolite in hepatocytes” value is reported as “Clofarabine”.

Source of the values: patent publication US20240059729A1, “MULTIFUNCTIONAL CYCLIC DINUCLEOTIDE AND USE THEREOF” (TYLIGAND BIOSCIENCE (SHANGHAI) LIMITED, priority 2020, published 2024).
